Test results from patent publication US11180462B2, “Microbiocidal oxadiazole derivatives” (SYNGENTA PARTICIPATIONS AG, priority 2015, dated 2021).
Like-named read-outs stand apart in the source and are kept apart here.

How the values were obtained:
[1] = test system: Puccinia recondita f. Sp. Tritici; assay: Fungicidal activity against Puccinia recondita f. sp. tritici / wheat / leaf disc preventative (brown rust); type: in vivo; conditions: foliar, read-out: disease control
Procedure, shortened: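 Compound application precedes infection: segments of wheat cv. Kanzler, sprayed at 200 ppm, are inoculated with a spore suspension after 1 day. Incubation is at 19° C. with 75% relative humidity and 12 h light/12 h darkness, and control versus untreated leaves is rated 7 to 9 days post-application.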

[2] = test system: Puccinia recondita f. Sp. Tritici; assay: Fungicidal activity against Puccinia recondita f. sp. tritici / wheat / leaf disc curative (brown rust); type: in vivo; conditions: foliar, 24 h, read-out: disease control
Procedure, shortened: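 Inoculate cv. Kanzler segments on agar; hold dark, 19° C, 75% RH. Spray diluted formulated compound at day 1. Incubate 12 h light/12 h dark, same temperature and humidity; score % control vs untreated 6–8 days later.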

[3] = test system: Glomerella lagenarium (Colletotrichum lagenarium); assay: Fungicidal activity against Glomerella lagenarium (Colletotrichum lagenarium) liquid culture / cucumber / preventative (anthracnose); type: cell-based; conditions: Colletotrichum orbiculare, read-out: disease control
Procedure, shortened: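 Photometric read-out of fungal growth after 2–7 days, expressed as percent antifungal activity versus untreated check. Cryo-stored conidia in PDB; compound at 20 ppm; dark, 24 °C, 96% RH.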

[4] = 200 ppm in the applied formulation, wheat leaf segments, preventative, compared to untreated control leaf disks
[5] = 200 ppm in the applied formulation, wheat leaf segments, curative (applied 1 day after inoculation), compared to untreated control leaf disks
[6] = 20 ppm in the applied formulation, liquid culture (PDB), growth inhibition measured photometrically after 3 to 4 days, compared to untreated control

C=CCN(Cc1ccc(-c2noc(C(F)(F)F)n2)cc1)C(=O)CC#N [Compound 1.490, N-allyl-2-cyano-N-[[4-[5-(trifluoromethyl)-1,2,4-oxadiazol-3-yl]phenyl]methyl]-acetamide]
≥ 80%: pest or weed control at 200 ppm [1, 4] | pest or weed control at 200 ppm [2, 5] | inhibition of growth at 20 ppm [3, 6]

CCN(Cc1ccc(-c2noc(C(F)(F)F)n2)cc1)C(=O)CNC(C)=O [Compound 1.501, 2-acetamido-N-ethyl-N-[[4-[5-(trifluoromethyl)-1,2,4-oxadiazol-3-yl]phenyl]methyl]-acetamide]
≥ 80%: pest or weed control at 200 ppm [1, 4] | pest or weed control at 200 ppm [2, 5] | inhibition of growth at 20 ppm [3, 6]

CCN(Cc1ccc(-c2noc(C(F)(F)F)n2)cc1)C(=O)CCl [Compound 1.502, 2-chloro-N-ethyl-N-[[4-[5-(trifluoromethyl)-1,2,4-oxadiazol-3-yl]phenyl]methyl]-acetamide]
≥ 80%: pest or weed control at 200 ppm [1, 4] | pest or weed control at 200 ppm [2, 5] | inhibition of growth at 20 ppm [3, 6]

CN(Cc1ccc(-c2noc(C(F)(F)F)n2)cc1)C(=O)CCl [Compound 1.522, 2-chloro-N-methyl-N-[[4-[5-(trifluoromethyl)-1,2,4-oxadiazol-3-yl]phenyl]methyl]-acetamide]
≥ 80%: pest or weed control at 200 ppm [1, 4] | pest or weed control at 200 ppm [2, 5] | inhibition of growth at 20 ppm [3, 6]

COC(C)C(=O)N(C)Cc1ccc(-c2noc(C(F)(F)F)n2)cc1 (stereo not drawn) [Compound 1.530, 2-methoxy-N-methyl-N-[[4-[5-(trifluoromethyl)-1,2,4-oxadiazol-3-yl]phenyl]methyl]-propanamide]
≥ 80%: pest or weed control at 200 ppm [1, 4] | pest or weed control at 200 ppm [2, 5] | inhibition of growth at 20 ppm [3, 6]

O=C(C1CC1)N(CCO)Cc1ccc(-c2noc(C(F)(F)F)n2)cc1 [Compound 1.609, N-(2-hydroxyethyl)-N-[[4-[5-(trifluoromethyl)-1,2,4-oxadiazol-3-yl]phenyl]methyl]-cyclopropane-carboxamide]
≥ 80%: pest or weed control at 200 ppm [1, 4] | pest or weed control at 200 ppm [2, 5] | inhibition of growth at 20 ppm [3, 6]

COCCC(=O)N(CCO)Cc1ccc(-c2noc(C(F)(F)F)n2)cc1 [Compound 1.713, N-(2-hydroxyethyl)-3-methoxy-N-[[4-[5-(trifluoromethyl)-1,2,4-oxadiazol-3-yl]phenyl]methyl]-propanamide]
≥ 80%: pest or weed control at 200 ppm [1, 4] | pest or weed control at 200 ppm [2, 5] | inhibition of growth at 20 ppm [3, 6]

CON(Cc1ccc(-c2noc(C(F)(F)F)n2)cc1)C(=O)COC(F)F [Compound 1.785, 2-(difuoromethoxy)-N-methoxy-N-[[4-[5-(trifluoromethyl)-1,2,4-oxadiazol-3-yl]phenyl]methyl]-acetamide]
≥ 80%: pest or weed control at 200 ppm [1, 4] | pest or weed control at 200 ppm [2, 5] | inhibition of growth at 20 ppm [3, 6]

CON(Cc1ccc(-c2noc(C(F)(F)F)n2)cc1)C(=O)C(C)NC(C)=O (stereo not drawn) [Compound 1.795, 2-acetamido-N-methoxy-N-[[4-[5-(trifluoromethyl)-1,2,4-oxadiazol-3-yl]phenyl]methyl]-propanamide]
≥ 80%: pest or weed control at 200 ppm [1, 4] | pest or weed control at 200 ppm [2, 5] | inhibition of growth at 20 ppm [3, 6]

CCOC(=O)N(Cc1ccc(-c2noc(C(F)(F)F)n2)cc1)OC [Compound 2.1, ethyl N-methoxy-N-[[4-[5-(trifluoromethyl)-1,2,4-oxadiazol-3-yl]phenyl]methyl]-carbamate]
≥ 80%: pest or weed control at 200 ppm [1, 4] | pest or weed control at 200 ppm [2, 5] | inhibition of growth at 20 ppm [3, 6]

CON(Cc1ccc(-c2noc(C(F)(F)F)n2)cc1)C(=O)Oc1ccccc1 [Compound 2.6, phenyl N-methoxy-N-[[4-[5-(trifluoromethyl)-1,2,4-oxadiazol-3-yl]phenyl]methyl]-carbamate]
≥ 80%: pest or weed control at 200 ppm [1] | pest or weed control at 200 ppm [2] | inhibition of growth at 20 ppm [3]

CON(Cc1ccc(-c2noc(C(F)(F)F)n2)cc1)C(=O)OC(C)C [Compound 2.14, isopropyl N-methoxy-N-[[4-[5-(trifluoromethyl)-1,2,4-oxadiazol-3-yl]phenyl]methyl]-carbamate]
≥ 80%: pest or weed control at 200 ppm [1, 4] | pest or weed control at 200 ppm [2, 5] | inhibition of growth at 20 ppm [3, 6]
